Tests used:
Type in all cases: functional, cell-based
FaDu [1] = assay: Cytotoxic activity against human FADU bulk cells incubated for 72 hrs by Cell-titer-Glo luminescence assay
FaDu [2] = assay: Cytotoxic activity against human FADU cancer stem cells incubated for 72 hrs by Cell-titer-Glo luminescence assay
A549 = assay: Cytotoxic activity against human A549 bulk cells incubated for 72 hrs by Cell-titer-Glo luminescence assay; conditions: A549, 72 h
ACHN = assay: Cytotoxic activity against human ACHN bulk cells incubated for 72 hrs by Cell-titer-Glo luminescence assay

SMILES | IC50 (FaDu [1]) | IC50 (FaDu [2]) | IC50 (A549) | IC50 (ACHN)
COc1cccnc1-c1ccc2c(c1)/C(=C/c1[nH]c(C)cc1C)C(=O)N2 | 33.2 µM |  |  | 
Cc1[nH]c(/C=C2\C(=O)Nc3ccc(-c4cnc(-c5ccccc5)[nH]4)cc32)c(C)c1C(=O)N1CCN(C)CC1 | 5.54 µM | 13.2 µM |  | 
CCN(CC)CCNC(=O)c1c(C)[nH]c(/C=C2\C(=O)Nc3ccc(-c4nnc(-c5ccccc5)o4)cc32)c1C | 8.23 µM | 21.5 µM |  | 
Cc1[nH]c(/C=C2\C(=O)Nc3ccc(-c4cnn(-c5ccccc5)c4C)cc32)c(C)c1C(=O)NCCN1CCCC1 | 5.79 µM | 1.31 µM |  | 
O=C1Nc2ccc(-c3csc(-c4ccccc4)n3)cc2/C1=C/c1cc2ccccc2[nH]1 | 49.3 µM |  |  | 
COc1ccc(-c2ccc3c(c2)/C(=C/c2[nH]c(C)cc2C)C(=O)N3)nc1 |  |  | 0.07 µM | 
Cc1[nH]c(/C=C2\C(=O)Nc3ccc(-c4ccnn4-c4ccc(C#N)cc4)cc32)c(C)c1C(=O)N1CCN(C)CC1 |  | 48.2 µM |  | 
CCN(CC)CCNC(=O)c1c(C)[nH]c(/C=C2\C(=O)Nc3ccc(C4CCN(C5CCN(C(C)=O)CC5)CC4)cc32)c1C | 3.32 µM | 1 µM | 29.6 µM | 4.8 µM
CCN(CC)CCNC(=O)c1c(C)[nH]c(/C=C2\C(=O)Nc3ccc(-c4nc(-c5ccccc5)n[nH]4)cc32)c1C | 6.16 µM | 2.8 µM |  | 
CCN(CC)CCNC(=O)c1c(C)[nH]c(/C=C2\C(=O)Nc3ccc(-c4csc(-c5cccc(Br)c5)n4)cc32)c1C | 24.8 µM | 7.82 µM |  | 
Cc1cc(C)c(/C=C2\C(=O)Nc3ccc(-c4ccc(C(=O)c5ccccc5)cc4)cc32)[nH]1 | 22.4 µM |  |  | 21.8 µM
O=C1Nc2ccc(-c3csc(-c4ccccc4)n3)cc2/C1=C/c1ccc(N2CCNCC2)cc1 | 2.59 µM |  | 5.79 µM | 
Cc1cc(C)c(/C=C2\C(=O)Nc3cc(-c4cnc5ccnn5c4)ccc32)[nH]1 |  | 14.9 µM |  | 
CN1CCN(C(=O)c2ccc(/C=C3\C(=O)Nc4ccc(-c5csc(-c6ccccc6)n5)cc43)[nH]c2=O)CC1 |  | 23.2 µM |  | 
CCN(CC)CCNC(=O)c1c(C)[nH]c(/C=C2\C(=O)Nc3ccc(C4CCN(c5ccccc5)CC4)cc32)c1C | 1.89 µM | 1.3 µM | 16 µM | 
CCOC(=O)CCc1cccc(-c2nc(-c3ccc4c(c3)/C(=C/c3[nH]c(C)c(C(=O)NCCN(CC)CC)c3C)C(=O)N4)cs2)c1 |  | 2.34 µM |  | 
O=C1Nc2ccc(-c3csc(-c4ccncc4)n3)cc2/C1=C/c1cc2ccccc2[nH]1 |  | 3.07 µM |  | 

SMILES | IC50 (FaDu [1]) | IC50 (FaDu [2]) | IC50 (A549) | IC50 (ACHN)
Cc1cc(C)c(/C=C2\C(=O)Nc3ccc(-c4ccc5ccccc5n4)cc32)[nH]1 |  |  |  | 7.44 µM
Cc1cc(C)c(/C=C2\C(=O)Nc3ccc(-c4nccc5ccccc45)cc32)[nH]1 | 23.5 µM |  | 18.4 µM | 
Cc1[nH]c(/C=C2\C(=O)Nc3ccc(-c4csc(C5CCNCC5)n4)cc32)c(C)c1C(=O)O |  | 5.62 µM |  | 
CCN(CC)CCNC(=O)c1c(C)[nH]c(/C=C2\C(=O)Nc3ccc(-c4cnc(-c5ccccc5)s4)cc32)c1C | 23.7 µM |  |  | 
CCN(CC)CCNC(=O)c1c(C)[nH]c(/C=C2\C(=O)Nc3ccc(-c4csc(-c5ccc(Br)cc5)n4)cc32)c1C | 3.68 µM | 1.33 µM |  | 
Cc1cc(C)c(/C=C2\C(=O)Nc3cc(-c4ccc5ccccc5n4)ccc32)[nH]1 | 14 µM |  |  | 
CCN(CC)CCNC(=O)c1c(C)[nH]c(/C=C2\C(=O)Nc3ccc(-c4nnc(-c5ccccc5)s4)cc32)c1C | 2.15 µM | 0.23 µM | 48.9 µM | 
Cc1cc(C)c(/C=C2\C(=O)Nc3ccc(-c4csc(-c5ccccc5)n4)cc32)[nH]1 | 7.87 µM | 6.49 µM |  | 5.31 µM
CCN(CC)CCNC(=O)c1c(C)[nH]c(/C=C2\C(=O)Nc3ccc(-n4cc(-c5ccccc5)nn4)cc32)c1C | 6.58 µM | 3 µM |  | 7.16 µM
COC(=O)c1c(C)[nH]c(/C=C2\C(=O)Nc3ccc(-c4csc(-c5ccccc5)n4)cc32)c1C | 21.8 µM |  | 16.3 µM | 1.16 µM
CCN(CC)CCNC(=O)c1c(C)[nH]c(/C=C2\C(=O)Nc3ccc(-c4ccnn4-c4ccc(C#N)cc4)cc32)c1C | 17.3 µM | 4.96 µM |  | 
Cc1cc(C)c(/C=C2\C(=O)Nc3ccc(-c4cnc5ccccc5n4)cc32)[nH]1 | 25.8 µM | 0.09 µM | 7.89 µM | 10.6 µM
Cc1[nH]c(/C=C2\C(=O)Nc3ccc(-c4ccc(-c5ccccc5)s4)cc32)c(C)c1C(=O)NCCN1CCCC1 | 4.44 µM | 1.64 µM |  | 
CC(=O)N1CCC(N2CCC(c3ccc4c(c3)/C(=C/c3[nH]c(C)c(C(=O)N5CCN(C)CC5)c3C)C(=O)N4)CC2)CC1 | 23.2 µM | 15.6 µM |  | 
O=C1Nc2ccc(-c3csc(-c4ccccc4)n3)cc2/C1=C/c1[nH]c(C(=O)O)c2c1CCCC2 |  | 4.49 µM |  | 24.9 µM
CCN(CC)CCNC(=O)c1c(C)[nH]c(/C=C2\C(=O)Nc3cnc(-c4csc(-c5ccccc5)n4)cc32)c1C | 11.2 µM | 4.75 µM |  | 
CCN(CC)CCNC(=O)c1c(C)[nH]c(/C=C2\C(=O)Nc3ccc(-c4oc(-c5ccccc5)nc4C)cc32)c1C |  | 18.2 µM |  | 

From ChEMBL document CHEMBL3727348, “3-(aryl or heteroaryl) methyleneindolin-2-one derivatives as inhibitors of cancer stem cell pathway kinases for the treatment of cancer” (2014)
